The numbers were not newly measured in patent US8653059B2, “Heterocyclic compounds as dipeptidyl peptidase-IV inhibitors for the treatment or prevention of diabetes” (Merck Sharp & Dohme Corp., priority 2007, dated 2014), which cites them from elsewhere.

The subject of one data set is cardiac allograft. Conditions: rats; Transplantation 63: 1495-1500 (1997).
The test system of the next data set is hematopoiesis. The following applies: mouse model of cyclophosphamide-induced neutropenia; WO 99/56753.
The target of a further data set is T1, DPP-4 (Homo sapiens, UniProt P27487).
T1 construct: GRF is rapidly degraded in plasma to GRF[3-44]; host or cells: plasma
T1 sequence (P27487 whole entry, species assumed): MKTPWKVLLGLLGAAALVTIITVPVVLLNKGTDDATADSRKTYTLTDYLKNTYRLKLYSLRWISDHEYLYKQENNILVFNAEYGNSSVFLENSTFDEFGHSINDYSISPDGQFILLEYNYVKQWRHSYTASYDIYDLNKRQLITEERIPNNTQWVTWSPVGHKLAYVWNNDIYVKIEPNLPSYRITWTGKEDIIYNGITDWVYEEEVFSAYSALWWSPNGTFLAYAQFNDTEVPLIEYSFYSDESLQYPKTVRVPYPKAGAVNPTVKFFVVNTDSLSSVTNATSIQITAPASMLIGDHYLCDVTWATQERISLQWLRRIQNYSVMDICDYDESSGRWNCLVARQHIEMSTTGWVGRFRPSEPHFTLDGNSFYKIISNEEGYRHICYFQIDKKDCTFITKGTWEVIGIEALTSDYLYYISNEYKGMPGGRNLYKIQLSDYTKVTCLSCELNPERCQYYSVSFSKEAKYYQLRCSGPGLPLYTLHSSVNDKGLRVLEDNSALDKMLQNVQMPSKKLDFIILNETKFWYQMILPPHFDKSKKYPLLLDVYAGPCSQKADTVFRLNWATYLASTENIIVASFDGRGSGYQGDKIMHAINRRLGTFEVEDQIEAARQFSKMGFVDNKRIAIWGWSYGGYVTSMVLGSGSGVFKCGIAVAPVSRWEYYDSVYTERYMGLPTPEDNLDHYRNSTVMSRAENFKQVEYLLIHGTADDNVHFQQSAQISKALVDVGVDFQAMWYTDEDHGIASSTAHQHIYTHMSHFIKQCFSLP

Regarding `CC(C)N1CCC(c2ccccc2)(c2ccccc2)CC1` [Prodipine, Pro-Pro-diphenyl-phosphonate], the cardiac allograft survival result in the data set with cardiac allograft is “double cardiac allograft survival in rats from day 7 to day 14”.

As to `CC(C)[C@H](N)C(=O)N1CCC[C@H]1B(O)O` [Val-Boro-Pro], in the data set with hematopoiesis, the hematopoiesis result is reported as “stimulated hematopoiesis”.

Consider diprotin A, for which the “degradation of GRF in plasma to GRF[3-44]” value on DPP-4 is listed as “prevented”.
